# Data reported in patent US20190225643A1, “NOVEL NUCLEOSIDE ANALOGS AND USE THEREOF IN THERAPEUTIC TREATMENT” (CORNELL UNIVERSITY, priority 2016, published 2019).
# Assays:
# [1] = system: BC3 cells; test: Trypan-blue exclusion viability, PEL cell line; format: cell-based; conditions: Homo sapiens, BC-3; selected PEL cell line (BC3), 48 hours; read-out: LC50 by Trypan-blue exclusion
# Experimental: (§1) Cell viability assays were performed by plating log-phase cells in RPMI complete media with 20% FBS at 1*10^5 cells/mL, with concentrations of 6-ETI or phospho-6-ETI ranging from 0.1 nM to 100 μM. ATP content at 24, 48 and 72 hours post-treatment was measured by the CellTiter-Glo kit (Promega, Madison, Wis.), or by Trypan blue assay as indicated. The LC50 for 6-ETI in each cell line was determined using online EC50 software at changbioscience.com or using GraphPad Prism to determine the LC50 for 6-ETI, phospho-6-ETI and nucleoside analogs in MM cell lines and primary MM patient samples.
# [2] = molecular target: ADK (Homo sapiens, UniProt P55263); test: In vitro ADK kinase assay with HPLC/MS; format: biochemical; conditions: 37° C., 5-360 minutes
# Experimental: The ADK kinase assay kit was purchased from Novocib, France. ADK and ATP provided in the kit were premixed into provided kinase assay buffer. The reaction at 37° C. was started by addition of 6-ETI in DMSO at T=0, followed by quenching of 10 μL of the reaction by 30 μL acetonitrile in an eppendorf tube at 5, 10, 15, 30, 60, 120, 150, 180, and 360 minutes. The quenched reaction was briefly vortexed and centrifuged at ˜7000 g, following which the supernatant was transferred into a fresh tube and stored at 4° C. for HPLC/MS analysis. A control reaction was set up containing ADK, ATP, and Inosine, in order to generate a standard peak for IMP, while ADK, DTT, and ATP controls were generated by dissolving individual kit components in a 3:1 acetonitrile:dH2O solution.
# LCMS separations were performed using a Waters ACQUITY UPLC system equipped with ACQUITY PDA (diode array), Waters Micromass SQD 2000 spectrometer, and a Waters ACQUITY BEH C18 column (1.7 μm, 2.1×100 mm). The solvent system consisted of 0.1% Formic Acid in Water (Solvent A) and 0.1% Formic Acid in Acetonitrile (Solvent B). Flow was set to 0.3 mL/min, and a gradient of 5-95% Solvent B was applied over a period of 3 minutes. Total runtime was 4 minutes. Eluents were detected using a PDA at a wavelength of 254 nm. Mass data was obtained in both positive and negative electrospray mode, at a cone voltage of 30V.
# [3] = system: DNA synthesis in BC3 cells; test: Click-iT EdU DNA synthesis assay, BC3; format: cell-based, human; conditions: BC3, 1 μM, 24 hours
# Experimental: (§2) BC3 and U266 cells were seeded at a density of 0.5 million cells/ml and treated with DMSO only, 1 μM or 1.0 μM 6-ETI for BC3 cells and 0.5 μM 6-ETI for U266 cells for 24 hrs. At 24 hrs post 6-ETI treatment, 0.5 million cells of each of the treated conditions were labeled with 10 μM of EdU for 2 hours then fixed for 30 min using 2% paraformaldehyde supplemented with 0.3M sucrose. Cells were then washed in PBS and perineabilized with 0.2% saponin, PBS with 1% BSA and 0.3M sucrose for 20 min at room temperature. During this incubation time, a click-iT cocktail mix containing, click iT reaction buffer, CuSO4, alexafluor488 and click iT reaction buffer additive was prepared according to the manufacturer's instructions. Cells were washed in PBS after permeabilization and the click-iT cocktail mix was added for 30 min at room temperature in the absence of light. To visualize DNA, cells were counterstained with Hoechst (1:1000) for another 30 min then washed and resuspended in PBS with 1% BSA. 20 μl of the resuspended cells were combined with 20 μl of mounting media Fluoromount-G (Southern biotech) and cells were mounted on Ibidi μ-slides. Cells were imaged using DeltaVision image restoration microscope (Rockefeller center).
# [4] = system: PA-Tu-8988T pancreatic adenocarcinoma cell line; format: cell-based, human
# Experimental: as §1
# Pancreatic adenocarcinoma PA-Tu-8988T cell line was kindly provided by Lewis Cantley's lab (Weill Cornell Medicine). […] of ADK in this cell line was achieved by transducing these cells with ADK shRNA Lentiviral Particles (Santa crux) and selecting the stable cell line using 2 μg/ml Puromycin.
# [5] = system: IBL-1 subcutaneous xenograft; test: Xenograft model of EBV-associated immunoblastic lymphoma; format: in vivo, mouse; conditions: 300 mg/kg/day i.p., 5 treatments over 10 days
# Experimental: The in vivo xenograft model of EBV-associated immunoblastic lymphoma was generated by injecting NOD-SCID mice (obtained from Jackson Laboratory Stock# 001303) subcutaneously on the flank region with 5*10^6IBL-1 cells in 200 μl of 50:50 matrigel/cell suspension per mouse. After forming palpable or measurable tumors, mice were randomly grouped (n=3 per group) and treated intraperitoneally with vehicle PBS-Tween80 or 6-ETI (300mg/kg/day) for 5 treatments over the course of 10 days where drug was administered three times a week. Tumor size was assessed by caliper measurement three times a week, and tumor volume (V) was calculated using the formula V=(length×Width^2)/2 where L=length or largest tumor diameter and W=width or the perpendicular tumor diameter. Relative tumor volume was determined according to the formula Vd/V0 where Vd is tumor volume on the day of measurement, and V0 represents the tumor volume on day 0 when the treatment started. At the end of the treatment course, two of the control mice were treated with vehicle PBS-Tween80 or 6-ETI (300 mg/kg) for 24 hr after which the tumors were harvested, fixed in 10% formalin and embedded in paraffin for histological examination and immunohistochemistry.
# [6] = system: DNA synthesis in U266 cells; test: Click-iT EdU DNA synthesis assay, MM cells; format: cell-based, human; conditions: 24 hrs
# Experimental: as §2
# Chain of ADK (P55263 whole entry): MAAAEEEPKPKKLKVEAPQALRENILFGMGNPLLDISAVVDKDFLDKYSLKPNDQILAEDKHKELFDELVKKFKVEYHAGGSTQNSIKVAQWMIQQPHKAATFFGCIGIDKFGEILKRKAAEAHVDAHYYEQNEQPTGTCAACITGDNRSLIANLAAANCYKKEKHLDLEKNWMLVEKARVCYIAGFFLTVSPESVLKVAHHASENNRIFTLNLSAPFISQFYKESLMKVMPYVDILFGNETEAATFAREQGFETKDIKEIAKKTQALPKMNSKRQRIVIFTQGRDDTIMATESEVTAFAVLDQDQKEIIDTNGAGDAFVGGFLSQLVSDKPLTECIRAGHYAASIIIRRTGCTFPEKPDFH
smiles,measurement,setting,value
"CCSc1ncnc2c1ncn2[C@@H]1O[C@H](CO)C(O)[C@@H]1O (stereo partly drawn) [Compound 6-ETI, 6-ethylthioinosine]",CC50,[1],74 nM
same,phosphorylation by ADK,[2],ADK phosphorylates 6-ETI directly
same,DNA synthesis (EdU incorporation),[3],complete inhibition of DNA synthesis
same,change in LC50 on ADK knockdown,[4],a log increase in LC50
same,tumor growth,[5],reduced the rate of tumor growth
same,DNA synthesis (EdU incorporation),[6],suppressed DNA synthesis
